How the values were obtained:
[1] = target: p38 MAPKα (MAPK14) (Homo sapiens (Human), UniProt Q16539); experiment: p38 MAPKα enzyme inhibition (Method 2), Z-LYTE FRET; type: biochemical
Method: (§1) The enzyme inhibitory activities of compounds disclosed herein are determined by FRET using synthetic peptides labelled with both donor and acceptor fluorophores (Z-LYTE, Invitrogen Ltd., Paisley, UK).
The following two assay variants can be used for determination of p38 MAPKα inhibition.
The inhibitory activities of test compounds against the p38 MAPKα isoform (MAPK14: Invitrogen) are evaluated indirectly by determining the level of activation/phosphorylation of the down-stream molecule, MAPKAP-K2. The p38 MAPKα protein (80 ng/mL, 2.5 μL) is mixed with the test compound (2.5 μL of either 4 μg/mL, 0.4 μg/mL, 0.04 μg/mL or 0.004 μg/mL) for 2 hr at RT. […] The mixture is incubated for 1 hr at RT. Development reagent (protease, 5 μL) is added for 1 hr prior to detection in a fluorescence microplate reader (Varioskan® Flash, ThermoFisher Scientific).
This method follows the same steps as Method 1 above, but utilises a higher concentration of the p38 MAPKα protein (2.5 μL of 200 ng/mL protein instead of 2.5 μL of 80 ng/mL protein) for mixing with the test compound (tested at either 1 μg/mL, 0.1 μg/mL, 0.01 μg/mL or 0.001 μg/mL).
(§2) In all cases, the site-specific protease cleaves non-phosphorylated peptide only and eliminates the FRET signal. Phosphorylation levels of each reaction are calculated using the ratio of coumarin emission (donor) over fluorescein emission (acceptor), for which high ratios indicate high phosphorylation and low ratios indicate low phosphorylation levels.

[2] = tested on: Jurkat cells; experiment: (r) Cell cytotoxicity assay; type: cell-based, human; settings: 24 hours
Procedure, shortened: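 Viability read by flow cytometry as the fraction of propidium iodide-negative cells (7.5 μg/mL PI, 15 min), relative to 1.0% DMSO control. Beforehand, 1×10^5 Jurkat cells in RPMI/10% FBS were treated 24 h at 37° C., 5% CO2 with test compound at final 20, 5 or 1 μg/mL.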

[3] = target: Syk (Homo sapiens (Human), UniProt P43405); experiment: Syk enzyme inhibition, Z-LYTE FRET; type: biochemical
Method: as §1
(§3) The relevant enzyme (3000 ng/mL or 2000 ng/mL respectively, 2.5 μL) is incubated with the test compound (either 1 μg/mL, 0.1 μg/mL, 0.01 μg/mL, or 0.001 μg/mL, 2.5 μL each) for 2 hr at RT. The FRET peptides (8 μM, 2.5 μL), and appropriate ATP solutions (2.5 μL, 800 μM for c-Src, and 60 μM ATP for Syk) are then added to the enzymes/compound mixtures and the mixture incubated for 1 hr. Development reagent (protease, 5 μL) is added for 1 hr prior to detection in a fluorescence microplate reader (Varioskan® Flash, ThermoFisher Scientific).
as §2

[4] = target: c-Src (Homo sapiens (Human), UniProt P12931); experiment: c-Src enzyme inhibition, Z-LYTE FRET; type: biochemical
Chain of c-Src (P12931 whole entry, looked up): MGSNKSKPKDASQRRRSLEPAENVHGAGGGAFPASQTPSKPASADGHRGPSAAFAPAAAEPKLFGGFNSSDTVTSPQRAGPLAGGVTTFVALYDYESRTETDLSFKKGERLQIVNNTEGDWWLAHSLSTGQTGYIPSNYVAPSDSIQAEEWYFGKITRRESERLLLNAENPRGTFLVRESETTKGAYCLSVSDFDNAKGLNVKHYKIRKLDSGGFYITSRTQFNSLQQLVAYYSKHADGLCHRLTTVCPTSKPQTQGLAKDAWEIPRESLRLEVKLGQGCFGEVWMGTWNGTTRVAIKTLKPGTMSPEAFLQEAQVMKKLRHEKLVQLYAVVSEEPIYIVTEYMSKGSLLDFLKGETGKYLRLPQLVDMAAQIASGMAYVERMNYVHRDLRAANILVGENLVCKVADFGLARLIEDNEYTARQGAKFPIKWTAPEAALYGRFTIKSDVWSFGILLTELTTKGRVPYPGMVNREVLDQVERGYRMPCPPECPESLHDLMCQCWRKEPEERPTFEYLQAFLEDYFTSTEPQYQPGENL
Method: as §1
as §3, with “The inhibitory activities of compounds of the invention against c-Src and Syk enzymes (Invitrogen), are evaluated in a similar fashion to that described hereinabove. The relevant” for “The relevant”
as §2

Chain of p38 MAPKα (MAPK14) (Q16539 whole entry): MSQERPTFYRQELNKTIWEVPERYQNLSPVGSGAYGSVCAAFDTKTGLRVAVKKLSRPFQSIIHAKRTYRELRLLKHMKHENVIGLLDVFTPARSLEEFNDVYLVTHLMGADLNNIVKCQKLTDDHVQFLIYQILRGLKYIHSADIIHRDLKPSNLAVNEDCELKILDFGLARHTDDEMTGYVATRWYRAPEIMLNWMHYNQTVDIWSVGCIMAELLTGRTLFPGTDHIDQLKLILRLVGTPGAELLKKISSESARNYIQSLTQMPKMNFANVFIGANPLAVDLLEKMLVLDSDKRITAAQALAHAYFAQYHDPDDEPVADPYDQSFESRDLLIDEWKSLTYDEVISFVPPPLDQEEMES

Row | IC50 [1] [nM] | IC50 [3] [nM] | IC50 [4] [nM] | Compound | % Viability at 1 μg/mL [2] [%] | % Viability at 5 μg/mL [2] [%] | % Viability at 20 μg/mL [2] [%]
1 | 214 |  |  | COCCOCCOCCOc1ccc(Nc2cc(Oc3ccc(NC(=O)Nc4cc(C(C)(C)C)cc(NS(C)(=O)=O)c4OC)c4ccccc34)ccn2)cc1C#N [Example 8, N-(5-(tert-Butyl)-3-(3-(4-((2-((3-cyano-4-(2-(2-(2-methoxyethoxy)ethoxy)ethoxy)phenyl)amino)pyridin-4-yl)oxy)naphthalen-1-yl)ureido)-2-methoxyphenyl)methanesulfonamide] |  |  | 
2 | 3 | 88 | 21 | COc1cc(Nc2cc(Oc3ccc(NC(=O)Nc4cc(C(C)(C)C)cc(NS(C)(=O)=O)c4OC)c4ccccc34)ccn2)ccc1C(=O)NC[C@H](O)[C@H](O)[C@H](O)CO [Example 42, 4-((4-((4-(3-(5-(tert-Butyl)-2-methoxy-3-(methylsulfonamido)phenyl)ureido)naphthalen-1-yl)oxy)pyridin-2-yl)amino)-2-methoxy-N-((2S,3S4R)-2,3,4,5-tetrahydroxypentyl)benzamide] | 96.6 | 91.7 | 21.3
3 |  | 948 | 232 | COc1cc(Nc2cc(Oc3ccc(NC(=O)Nc4cc(C(C)(C)C)cc(NS(C)(=O)=O)c4OC)c4ccccc34)ccn2)ccc1S(=O)(=O)N(C)CCN1CCOCC1 [17(o), 1-[5-tert-butyl-3-(methanesulfonamido)-2-methoxy-phenyl]-3-[4-[[2-[3-methoxy-4-[methyl(2-morpholinoethyl)sulfamoyl]anilino]-4-pyridyl]oxy]-1-naphthyl]urea] |  |  | 
4 | 4 | 124 | 68 | COc1c(NC(=O)Nc2ccc(Oc3ccnc(Nc4ccc(C(=O)O)c(N(C)C)c4)c3)c3ccccc23)cc(C(C)(C)C)cc1NS(C)(=O)=O [17(am), 4-[[4-[[4-[[5-tert-butyl-3-(methanesulfonamido)-2-methoxy-phenyl]carbamoylamino]-1-naphthyl]oxy]-2-pyridyl]amino]-2-(dimethylamino)benzoic acid] | 103.4 | 90.5 | 32.5
5 | 36 | 108 | 40 | COc1cc(Nc2cc(Oc3ccc(NC(=O)Nc4cc(C(C)(C)C)cc(NS(C)(=O)=O)c4OC)c4ccccc34)ccn2)ccc1S(=O)(=O)CC(CO)(CO)CO [Example 45, N-(5-(tert-Butyl)-3-(3-(4-((2-((4-((3-hydroxy-2,2-bis(hydroxymethyl)propyl)sulfonyl)-3-methoxyphenyl)amino)pyridin-4-yl)oxy)naphthalen-1-yl)ureido)-2-methoxyphenyl)-methanesulfonamide] | 97.7 | 93.7 | 9.8
6 |  | 15 | 16 | COc1c(NC(=O)Nc2ccc(Oc3ccnc(Nc4ccc(C(=O)NCCN5CCOCC5)c(N(C)C)c4)c3)c3ccccc23)cc(C(C)(C)C)cc1NS(C)(=O)=O [Example 21] | 101.2 | 82.4 | 77.1
7 | 47 | 82 | 29 | COc1cc(Nc2cc(Oc3ccc(NC(=O)Nc4cc(C(C)(C)C)cc(NS(C)(=O)=O)c4OC)c4ccccc34)ccn2)ccc1C(=O)NC(CO)(CO)CO [17(cm), 4-((4-((4-(3-(5-(tert-Butyl)-2-methoxy-3-(methylsulfonamido)phenyl)ureido)naphthalen-1-yl)oxy)pyridin-2-yl)amino)-N-(1,3-dihydroxy-2-(hydroxymethyl)propan-2-yl)-2-methoxybenzamide] | 95.9 | 77.0 | 14.5
8 | 6 | 138 | 17 | COc1cc(Nc2cc(Oc3ccc(NC(=O)Nc4cc(C(C)(C)C)cc(NS(C)(=O)=O)c4OC)c4ccccc34)ccn2)cc(OC)c1C(=O)NCCN1CCN(C)CC1 [Example 22, 4-((4-((4-(3-(5-(tert-Butyl)-2-methoxy-3-(methylsulfonamido)phenyl)ureido)naphthalen-1-yl)oxy)pyridin-2-yl)amino)-2,6-dimethoxy-N-(2-(4-methylpiperazin-1-yl)ethyl)benzamide] | 102.8 | 96.6 | 42.9
9 | 162 | 400 | 195 | COc1cc(Nc2cc(Oc3ccc(NC(=O)Nc4cc(C(C)(C)C)cc(NS(C)(=O)=O)c4OC)c4ccccc34)ccn2)ccc1S(=O)(=O)CCOCCOCCO [Example 40, N-(5-(tert-Butyl)-3-(3-(4-((2-((4-((2-(2-(2-hydroxyethoxy)ethoxy)ethyl)sulfonyl)-3-methoxyphenyl)amino)pyridin-4-yl)oxy)naphthalen-1-yl)ureido)-2-methoxyphenyl)-methanesulfonamide] | 89.6 | 73.6 | 67.1
10 | 40 |  |  | COc1cc(Nc2cc(Oc3ccc(NC(=O)Nc4cc(C(C)(C)C)cc(NS(C)(=O)=O)c4OC)c4ccccc34)ccn2)ccc1C(=O)NCCN1CCN(C2CC2)CC1 [Example 26, 4-((4-((4-(3-(5-(tert-Butyl)-2-methoxy-3-(methylsulfonamido)phenyl)ureido)naphthalen-1-yl)oxy)pyridin-2-yl)amino)-N-(2-(4-cyclopropylpiperazin-1-yl)ethyl)-2-methoxybenzamide] | 94.8 | 84.6 | 76.6
11 | 5 |  |  | COc1cc(Nc2cc(Oc3ccc(NC(=O)Nc4cc(C(C)(C)C)cc(NS(C)(=O)=O)c4OC)c4ccccc34)ccn2)ccc1C(=O)N(C)CCCN1CCOCC1 [17(af), 4-[[4-[[4-[[5-tert-butyl-3-(methanesulfonamido)-2-methoxy-phenyl]carbamoylamino]-1-naphthyl]oxy]-2-pyridyl]amino]-2-methoxy-N-methyl-N-(3-morpholinopropyl)benzamide] | 96.7 | 76.2 | 54.1
12 |  | 393 | 20 | COc1cc(Nc2cc(Oc3ccc(NC(=O)Nc4cc(C(C)(C)C)cc(NC(=O)COP(=O)(O)O)c4OC)c4ccccc34)ccn2)ccc1C(=O)NCCN1CC[S+]([O-])CC1 [17(cp), 2-((5-(tert-Butyl)-2-methoxy-3-(3-(4-((2-((3-methoxy-4-((2-(1-oxidothiomorpholino)-ethyl)carbamoyl)phenyl)amino)pyridin-4-yl)oxy)naphthalen-1-yl)ureido)phenyl)amino)-2-oxoethyl dihydrogen phosphate] | 97.6 | 96.9 | 94.7
13 |  | 144 | 77 | COc1cc(Nc2cc(Oc3ccc(NC(=O)Nc4cc(C(C)(C)C)cc(NS(C)(=O)=O)c4OC)c4ccccc34)ccn2)ccc1S(=O)(=O)CCCN1CCOCC1 [Example 20, N-(5-(tert-Butyl)-2-methoxy-3-(3-(4-((2-((3-methoxy-4-((3-morpholinopropyl)sulfonyl)phenyl)-amino)pyridin-4-yl)oxy)naphthalen-1-yl)ureido)phenyl)methanesulfonamide] | 104.0 | 99.3 | 91.8
14 |  | 809 | 150 | COc1cc(Nc2cc(Oc3ccc(NC(=O)Nc4cc(C(C)(C)C)cc(NS(C)(=O)=O)c4OC)c4ccccc34)ccn2)ccc1S(=O)(=O)N(C)CCCN1CCOCC1 [Example 13, 1-[5-tert-Butyl-3-(methanesulfonamido)-2-methoxy-phenyl]-3-[4-[[2-[3-methoxy-4-[methyl(3-morpholinopropyl)sulfamoyl]anilino]-4-pyridyl]oxy]-1-naphthyl]urea] |  |  | 

From US10125100B2, “Kinase inhibitors” (Respivert Limited, priority 2014, dated 2018)
